Nine compounds from patent US20240381872A1, “SUBSTITUTED 2,3-DIHYDRO[1,3]THIAZOLO[4,5-B]PYRIDINES, SALTS THEREOF AND THEIR USE AS HERBICIDALLY ACTIVE SUBSTANCES” (BAYER AKTIENGESELLSCHAFT, priority 2021, published 2024) can be followed below.

Common to all, as to format: in vivo
Experiment [1] relates to Veronica persica (VERPE). The experiment can be described thus: Herbicidal post-emergence action, section E (Table E9). As to conditions: Veronica persica, 504 h, visual assessment ca. 3 weeks after spraying, read-out: post-emergence activity against VERPE in %; for pest or weed control at 320 g/ha: application rate 320 g/ha. The text has this: Seeds of mono- and dicotyledonous weed plants and crop plants were sown, in plastic or organic planting pots, in sandy loam, covered with soil and grown in a greenhouse under controlled growth conditions. 2 to 3 weeks after sowing, the test plants were sprayed in the single-leaf stage. The compounds according to the invention, formulated in form of wettable powders (WP) or as emulsifiable concentrates (EC), were sprayed onto the green plant parts as aqueous suspension or emulsion, with the addition of 0.5% of an additive, at an application rate of 600 l of water/ha (converted). The test plants were placed in the greenhouse for ca. 3 weeks under optimum growth conditions, and then the effect of the preparations was assessed visually in comparison with untreated controls (herbicidal effect in percent (%): 100% effect=plants have died off, 0% effect=as control plants).

Experiment [2] has as its system Polygonum convolvulus (POLCO). In words: Herbicidal pre-emergence action, section C (Table C7). As to conditions: visual grading after ca. 3 weeks; for pest or weed control at 320 g/ha: application rate 320 g/ha. The text has this:
(§1) Seeds of mono- and dicotyledonous weed plants and crop plants were sown, in plastic or organic planting pots, in sandy loam and covered with soil. The compounds according to the invention, formulated in the form of wettable powders (WP) or as emulsifiable concentrates (EC), were applied to the surface of the covering soil as aqueous suspension or emulsion, with the addition of 0.5% of an additive, at an application rate of 600 l of water/ha (converted). Following treatment, the pots were placed in a greenhouse and kept under optimum growth conditions for the test plants. The visual grading of the damage to the test plants was carried out after ca. 3 weeks in comparison to untreated controls (herbicidal effect in percent (%): 100% effect=plants have died off, 0% effect=as control plants).

Experiment [3] relates to Amaranthus retroflexus (AMARE). In words: Herbicidal pre-emergence action, section C (Table C11). As to conditions: Amaranthus retroflexus, pre-emergence, 504 h; application rate 80 g/ha; visual grading after ca. 3 weeks; read-out: pre-emergence activity against AMARE in %. The gist of the method:
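Seeds sown in sandy loam and covered with soil; compounds formulated as WP or EC were sprayed onto the covering soil as aqueous suspension/emulsion with 0.5% additive at 600 l water/ha. Pots kept in greenhouse under optimum conditions; damage graded visually after ca. 3 weeks versus untreated controls (0–100%).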

Experiment [4] has as its system Alopecurus myosuroides (ALOMY). In words: Herbicidal pre-emergence action, section C (Table C2). The settings on record: visual grading after ca. 3 weeks vs untreated controls.
From the text: as §1

In experiment [5] the test system is Matricaria inodora (MATIN). In words: Herbicidal pre-emergence action, section C (Table C6). The settings on record: Tripleurospermum inodorum, pre-emergence, 504 h, visual grading after ca. 3 weeks, read-out: pre-emergence activity against MATIN in %.
From the text: as §1

Experiment [6] relates to Glycine max (GLXMA). In words: Post-emergence effects on crop plants, section F (Table F4). The gist of the method:
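Crop seeds were sown in sandy loam in pots and greenhouse-grown; at the single-leaf stage, 2 to 3 weeks after sowing, plants were sprayed with WP or EC formulations plus 0.5% additive at 600 l water/ha, 320 g/ha or below. Damage was scored visually about 3 weeks later versus untreated controls (0–100%).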

Experiment [7] deals with Lolium rigidum (LOLRI). The experiment can be described thus: Herbicidal pre-emergence action, section A (Table A5). The settings on record: visual grading after ca. 3 weeks vs untreated controls; for pest or weed control at 320 g/ha / pest or weed control at 1280 g/ha: Lolium rigidum, pre-emergence, 504 h, read-out: pre-emergence activity against LOLRI in %. The gist of the method:
(§2)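 Read-out is visual herbicidal effect in percent (100% = plants died, 0% = as control), graded ca. 3 weeks after treatment. Test compounds as WP or EC were applied to covering soil over sown seeds with 0.5% additive, 600 l water per hectare; greenhouse growth.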

The subject of experiment [8] is Amaranthus retroflexus (AMARE). In words: Herbicidal post-emergence action, section B (Table B11). As to conditions: visual rating about 3 weeks after treatment vs untreated controls; for pest or weed control at 1280 g/ha / pest or weed control at 320 g/ha: Amaranthus retroflexus, post-emergence, 504 h, read-out: post-emergence activity against AMARE in %; for pest or weed control at 320 g/ha: application rate 320 g/ha. A digest of the protocol:
(§3)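 Greenhouse post-emergence spray on one-leaf-stage plants (sown in sandy loam, 2 to 3 weeks old). WP/EC formulations in water + 0.5% additive, 600 liters per hectare. Read-out: visual % activity vs untreated, ~3 weeks after treatment; 100% = dead, 0% = as control.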

Experiment [9] has as its system Veronica persica (VERPE). The experiment can be described thus: Herbicidal pre-emergence action, section A (Table A10). The settings on record: for pest or weed control at 320 g/ha / pest or weed control at 1280 g/ha: Veronica persica, 504 h, read-out: pre-emergence activity against VERPE in %; for pest or weed control at 320 g/ha: application rate 320 g/ha; for pest or weed control at 1280 g/ha / pre-emergence activity against VERPE in %: application rate 1280 g/ha. The gist of the method: as §2

Experiment [10] concerns Echinochloa crus-galli (ECHCG). The experiment can be described thus: Herbicidal post-emergence action, section B (Table B3). The settings on record: rated visually after about 3 weeks. A digest of the protocol:
as §3

The subject of experiment [11] is Lolium rigidum (LOLRI). In words: Herbicidal post-emergence action, section B (Table B5). As to conditions: application rate 1280 g/ha, visual rating about 3 weeks after treatment vs untreated controls. How it is done:
Seeds of mono- and dicotyledonous weed plants were placed in plastic pots in sandy loam soil (doubly sown with in each case one species of mono- or dicotyledonous weed plants per pot), covered with soil and cultivated in a greenhouse under controlled growth conditions. 2 to 3 weeks after sowing, the test plants were treated at the one-leaf stage. The compounds of the invention, formulated in the form of wettable powders (WP) or as emulsion concentrates (EC), were applied onto the green parts of the plants as aqueous suspension or emulsion with addition of 0.5% additive at a water application rate of 600 liters per hectare (converted). After the test plants had been kept in the greenhouse under optimum growth conditions for about 3 weeks, the activity of the preparations was rated visually in comparison to untreated controls. For example, 100% activity=the plants have died, 0% activity=like control plants.

[12] abbreviates: Fallopia convolvulus, pre-emergence, 504 h, read-out: pre-emergence activity against POLCO in %.
[13] abbreviates: Alopecurus myosuroides, pre-emergence, 504 h, application rate 320 g/ha, read-out: pre-emergence activity against ALOMY in %.
Setting [14] is: Glycine max, 504 h, application rate 80 g/ha, read-out: post-emergence activity against GLXMA in %.
Setting [15] is: Echinochloa crus-galli, 504 h, application rate 1280 g/ha, read-out: post-emergence activity against ECHCG in %.

With `Cc1cc2c(nc1-c1ccccc1Cl)NCS2` [Example I-049, 5-(2-chlorophenyl)-6-methyl-2,3-dihydro[1,3]thiazolo[4,5-b]pyridine], the pest or weed control at 320 g/ha was 80% in experiment [1], 80% in [2] (setting [12]), 100% in experiment [4] (setting [13]) and 80% in experiment [5] (application rate 320 g/ha). The pest or weed control at 80 g/ha in [3] is 80%.

As to `CCS(=O)(=O)N1C[S+]([O-])c2cc(C)c(-c3ccccc3C)nc21` (stereo not drawn) [Example I-074], the pest or weed control at 320 g/ha in [1] was determined as 90%; in [7] (application rate 320 g/ha), 100%; in [2] (setting [12]), 90%; in experiment [9], 90%. Also, the percent crop plant damage at 80 g/ha in [6] (setting [14]) came to 0%. The pest or weed control at 1280 g/ha in experiment [8] (application rate 1280 g/ha) is 90%. Moreover, the pest or weed control at 80 g/ha in experiment [3] was found to be 90%; in [4] (Alopecurus myosuroides, pre-emergence, 504 h, application rate 80 g/ha, read-out: pre-emergence activity against ALOMY in %) it was 80%.

For `Clc1ccccc1-c1nc2c(cc1Br)SCN2` [Example I-041, 6-bromo-5-(2-chlorophenyl)-2,3-dihydro[1,3]thiazolo[4,5-b]pyridine], the pest or weed control at 320 g/ha in experiment [10] (Echinochloa crus-galli, 504 h, application rate 320 g/ha, read-out: post-emergence activity against ECHCG in %) was 100%; in experiment [8] it was 90%; in experiment [4] (setting [13]), 80%; in experiment [9], 90%. In [6] (setting [14]), the percent crop plant damage at 80 g/ha was found to be 0%. The pest or weed control at 1280 g/ha in [7] (application rate 1280 g/ha) came out at 100%; in experiment [11] (Lolium rigidum, post-emergence, 504 h, read-out: post-emergence activity against LOLRI in %) it was 90%. Also, the pest or weed control at 80 g/ha in [2] (Fallopia convolvulus, pre-emergence, 504 h, application rate 80 g/ha, read-out: pre-emergence activity against POLCO in %) worked out at 80%; in [3], 90%.

Consider `Cc1cc2c(nc1-c1ccccc1F)NCS2` [Example I-007, 5-(2-fluorophenyl)-6-methyl-2,3-dihydro[1,3]thiazolo[4,5-b]pyridine], for which the pest or weed control at 80 g/ha in experiment [1] (application rate 80 g/ha) and in experiment [5] (application rate 80 g/ha) was 80% in each case. In addition, the pest or weed control at 1280 g/ha in experiment [10] (setting [15]), in experiment [8] (application rate 1280 g/ha) and in experiment [9] was 90% in each case. Moreover, the pest or weed control at 320 g/ha came to 100% in experiment [7] (application rate 320 g/ha), 80% in [2] (setting [12]) and 100% in experiment [4] (setting [13]).

Take `BN1CSc2cc(Br)c(-c3ccccc3C)nc21` [Example I-011]: the “post-emergence activity against ECHCG in %” value in [10] (application rate 1280 g/ha) worked out at 90%. In experiment [7] (application rate 320 g/ha), the “pre-emergence activity against LOLRI in %” value turned out to be 100%. The “post-emergence activity against AMARE in %” value in experiment [8] (application rate 1280 g/ha) is listed as 90%. In addition, the “pre-emergence activity against ALOMY in %” value in [4] (application rate 320 g/ha) is recorded as 90%. Moreover, in experiment [9], the “pre-emergence activity against VERPE in %” value was 90%.

For the compound `CC(=O)N1CSc2cc(Br)c(-c3ccccc3Cl)nc21` [Example I-055, 1-[6-bromo-5-(2-chlorophenyl)[1,3]thiazolo[4,5-b]pyridin-3(2H)-yl]ethanone], the results for the pest or weed control at 1280 g/ha in [10] (setting [15]) and in [7] (application rate 1280 g/ha) were 90% and 100%, respectively. Besides, the percent crop plant damage at 320 g/ha in experiment [6] (Glycine max, 504 h, application rate 320 g/ha, read-out: post-emergence activity against GLXMA in %) was 20%. The pest or weed control at 320 g/ha in experiment [2] (setting [12]) was determined as 80%; in [8], 90%; in experiment [4] (setting [13]), 80%; in experiment [9], 90%. The pest or weed control at 80 g/ha in experiment [3] was 90%.

As for `CCc1ccccc1-c1nc2c(cc1C)[S+]([O-])CN2` (stereo not drawn) [Example I-047], the pest or weed control at 320 g/ha in experiment [1] was 80%; in experiment [2] (setting [12]) it was 80%; in experiment [8], 90%. For the same compound, the pest or weed control at 1280 g/ha in experiment [10] (setting [15]) came out at 90%. The percent crop plant damage at 80 g/ha in experiment [6] (setting [14]) came to 0%. For the same compound, the pest or weed control at 80 g/ha in [3] worked out at 90%.

On to `Cc1cc2c(nc1-c1cccc(C)c1F)NCS2` [Example I-113], for which the “post-emergence activity against GLXMA in %” value in experiment [6] (crop plant damage, application rate 80 g/ha) was 0%. The “pre-emergence activity against LOLRI in %” value in [7] (application rate 1280 g/ha) is on record as 100%. Further, the “pre-emergence activity against POLCO in %” value in [2] (application rate 80 g/ha) worked out at 90%. For the same compound, in experiment [11], the “post-emergence activity against LOLRI in %” value came out at 90%. Also, the “pre-emergence activity against VERPE in %” value in experiment [9] is on record as 90%.

For `CC1(C(=O)N2CSc3cc(Br)c(-c4ccccc4Cl)nc32)CC(Cl)=NO1` (stereo not drawn) [Example I-141, [6-bromo-5-(2-chlorophenyl)[1,3]thiazolo[4,5-b]pyridin-3(2H)-yl](3-chloro-5-methyl-4,5-dihydro-1,2-oxazol-5-yl)methanone], the pest or weed control at 320 g/ha in [1], in experiment [2] (setting [12]) and in [4] (setting [13]) was 80% each time. Further, the pest or weed control at 1280 g/ha in [10] (setting [15]) came to 90%; in [7] (application rate 1280 g/ha), 100%; in experiment [8] (application rate 1280 g/ha), 90%; in experiment [9], 90%. Moreover, the percent crop plant damage at 80 g/ha in experiment [6] (setting [14]) was 20%. Moreover, the pest or weed control at 80 g/ha in [3] is 100%.
